Like-named read-outs stand apart in the source and are kept apart here.
Experiments:
Type in all cases: in vivo
Yellow Foxtail [1] = experiment: pre-emergence herbicide test; conditions: Setaria, read-out: % plant inhibition
In short: (§1)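 Test compound, dissolved or suspended in acetone or water, is applied to a topsoil layer covering freshly sown seeds. Pans stay in a greenhouse with watering from below, and plants are rated for percent inhibition approximately two weeks after treatment.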

Morning Glory [2] = experiment: pre-emergence herbicide test; conditions: Ipomoea, pre-emergence, read-out: % plant inhibition
In short: as §1

Yellow Nutsedge [3] = experiment: pre-emergence herbicide test; conditions: Cyperus, read-out: % plant inhibition
In short: as §1

Velvetleaf [4] = experiment: pre-emergence herbicide test; conditions: Abutilon theophrasti, pre-emergence, read-out: % plant inhibition
In short: as §1

Common Chickweed = experiment: post-emergence herbicide test; conditions: post-emergence, read-out: % plant inhibition
In short: (§2)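 Herbicidal effect measured as percent inhibition of each plant species after spraying. Application: atomizer, 170.3 kPa, 1870 L/Ha, about 0.4% emulsifier, to plants aged two to three weeks in greenhouse soil pans.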

Blackgrass = experiment: post-emergence herbicide test; conditions: Alopecurus myosuroides, post-emergence, read-out: % plant inhibition; for inhibition at 40.0143 g/ha: 0.0357 lb/A; for inhibition at 200.072 g/ha: 0.1785 lb/A; for inhibition at 1000.92 g/ha: 0.893 lb/A; for inhibition at 5043.82 g/ha: 4.5 lb/A
In short: as §2

Yellow Foxtail [5] = experiment: post-emergence herbicide test; conditions: Setaria, read-out: % plant inhibition
In short: as §2

Cocklebur = experiment: post-emergence herbicide test; conditions: Xanthium strumarium, post-emergence, read-out: % plant inhibition
In short: as §2

Corn = experiment: post-emergence herbicide test; conditions: Zea mays, post-emergence, read-out: % plant inhibition
In short: as §2

Soybean = experiment: post-emergence herbicide test; conditions: Glycine max, post-emergence, read-out: % plant inhibition
In short: as §2

Wheat = experiment: post-emergence herbicide test; conditions: Triticum aestivum, post-emergence, read-out: % plant inhibition
In short: as §2

Morning Glory [6] = experiment: post-emergence herbicide test; conditions: Ipomoea, post-emergence, read-out: % plant inhibition
In short: as §2

Barnyardgrass = experiment: post-emergence herbicide test; conditions: Echinochloa crus-galli, post-emergence, read-out: % plant inhibition
In short: as §2

Yellow Nutsedge [7] = experiment: post-emergence herbicide test; conditions: Cyperus, read-out: % plant inhibition
In short: as §2

Bedstraw Catchweed = experiment: post-emergence herbicide test; conditions: Galium aparine, post-emergence, read-out: % plant inhibition
In short: as §2

Velvetleaf [8] = experiment: post-emergence herbicide test; conditions: Abutilon theophrasti, post-emergence, read-out: % plant inhibition
In short: as §2

Molecule `Cc1c(-c2cc(O)c(Cl)cc2F)nn(C)c1C(F)(F)F` [Compound 40] has an inhibition at 40.0143 g/ha (Yellow Foxtail [1]; 0.0357 lb/A) of 0%, an inhibition at 200.072 g/ha (Yellow Foxtail [1]; 0.1785 lb/A) of 0% and an inhibition at 1000.92 g/ha (Yellow Foxtail [1]; 0.893 lb/A) of 80%. The inhibition at 5043.82 g/ha (Yellow Foxtail [1]; 4.5 lb/A) was 100%, the inhibition at 40.0143 g/ha (Morning Glory [2]; 0.0357 lb/A) was 0% and the inhibition at 200.072 g/ha (Morning Glory [2]; 0.1785 lb/A) was 0%. The inhibition at 1000.92 g/ha (Morning Glory [2]; 0.893 lb/A) was 50%, the inhibition at 5043.82 g/ha (Morning Glory [2]; 4.5 lb/A) was 100% and the inhibition at 40.0143 g/ha (Yellow Nutsedge [3]; 0.0357 lb/A) was 0%. For the same molecule, the inhibition at 200.072 g/ha (Yellow Nutsedge [3]; 0.1785 lb/A) was 0%, the inhibition at 1000.92 g/ha (Yellow Nutsedge [3]; 0.893 lb/A) was 70% and the inhibition at 5043.82 g/ha (Yellow Nutsedge [3]; 4.5 lb/A) was 0%. For the same molecule, the inhibition at 40.0143 g/ha (Velvetleaf [4]; 0.0357 lb/A) was 0%, the inhibition at 200.072 g/ha (Velvetleaf [4]; 0.1785 lb/A) was 0% and the inhibition at 1000.92 g/ha (Velvetleaf [4]; 0.893 lb/A) was 60%. For the same molecule, the inhibition at 5043.82 g/ha (Velvetleaf [4]; 4.5 lb/A) was 100%, the inhibition at 40.0143 g/ha (Common Chickweed; 0.0357 lb/A) was 15% and the inhibition at 200.072 g/ha (Common Chickweed; 0.1785 lb/A) was 50%. For the same molecule, the inhibition at 1000.92 g/ha (Common Chickweed; 0.893 lb/A) was 98%, the inhibition at 5043.82 g/ha (Common Chickweed; 4.5 lb/A) was 98% and the inhibition at 40.0143 g/ha (Blackgrass; Table 4a) was 0%. The inhibition at 40.0143 g/ha (Blackgrass; Table 5a) was 0%, the inhibition at 200.072 g/ha (Blackgrass; Table 4a) was 0% and the inhibition at 200.072 g/ha (Blackgrass; Table 5a) was 35%. For the same molecule, the inhibition at 1000.92 g/ha (Blackgrass; Table 4a) was 50%, the inhibition at 1000.92 g/ha (Blackgrass; Table 5a) was 65% and the inhibition at 5043.82 g/ha (Blackgrass; Table 4a) was 30%. It also gave an inhibition at 5043.82 g/ha (Blackgrass; Table 5a) of 100%, an inhibition at 40.0143 g/ha (Yellow Foxtail [5]; 0.0357 lb/A) of 0% and an inhibition at 200.072 g/ha (Yellow Foxtail [5]; 0.1785 lb/A) of 0%. The inhibition at 1000.92 g/ha (Yellow Foxtail [5]; 0.893 lb/A) was 10%, the inhibition at 5043.82 g/ha (Yellow Foxtail [5]; 4.5 lb/A) was 100% and the inhibition at 40.0143 g/ha (Cocklebur; 0.0357 lb/A) was 80%. It also gave an inhibition at 200.072 g/ha (Cocklebur; 0.1785 lb/A) of 65%, an inhibition at 1000.92 g/ha (Cocklebur; 0.893 lb/A) of 70% and an inhibition at 5043.82 g/ha (Cocklebur; 4.5 lb/A) of 100%. The inhibition at 40.0143 g/ha (Corn; 0.0357 lb/A) was 25%, the inhibition at 200.072 g/ha (Corn; 0.1785 lb/A) was 45% and the inhibition at 1000.92 g/ha (Corn; 0.893 lb/A) was 85%. For the same molecule, the inhibition at 5043.82 g/ha (Corn; 4.5 lb/A) was 50%, the inhibition at 40.0143 g/ha (Soybean; 0.0357 lb/A) was 25% and the inhibition at 200.072 g/ha (Soybean; 0.1785 lb/A) was 30%. It also gave an inhibition at 1000.92 g/ha (Soybean; 0.893 lb/A) of 70%, an inhibition at 5043.82 g/ha (Soybean; 4.5 lb/A) of 80% and an inhibition at 40.0143 g/ha (Wheat; 0.0357 lb/A) of 0%. It also gave an inhibition at 200.072 g/ha (Wheat; 0.1785 lb/A) of 15%, an inhibition at 1000.92 g/ha (Wheat; 0.893 lb/A) of 20% and an inhibition at 5043.82 g/ha (Wheat; 4.5 lb/A) of 25%. It also gave an inhibition at 40.0143 g/ha (Morning Glory [6]; 0.0357 lb/A) of 50%, an inhibition at 200.072 g/ha (Morning Glory [6]; 0.1785 lb/A) of 70% and an inhibition at 1000.92 g/ha (Morning Glory [6]; 0.893 lb/A) of 80%. For the same molecule, the inhibition at 5043.82 g/ha (Morning Glory [6]; 4.5 lb/A) was 100%, the inhibition at 40.0143 g/ha (Barnyardgrass; 0.0357 lb/A) was 0% and the inhibition at 200.072 g/ha (Barnyardgrass; 0.1785 lb/A) was 0%. It also gave an inhibition at 1000.92 g/ha (Barnyardgrass; 0.893 lb/A) of 65%, an inhibition at 5043.82 g/ha (Barnyardgrass; 4.5 lb/A) of 85% and an inhibition at 40.0143 g/ha (Yellow Nutsedge [7]; 0.0357 lb/A) of 70%. The inhibition at 200.072 g/ha (Yellow Nutsedge [7]; 0.1785 lb/A) was 55%, the inhibition at 1000.92 g/ha (Yellow Nutsedge [7]; 0.893 lb/A) was 0% and the inhibition at 5043.82 g/ha (Yellow Nutsedge [7]; 4.5 lb/A) was 0%. The inhibition at 40.0143 g/ha (Bedstraw Catchweed; 0.0357 lb/A) was 20%, the inhibition at 200.072 g/ha (Bedstraw Catchweed; 0.1785 lb/A) was 60% and the inhibition at 1000.92 g/ha (Bedstraw Catchweed; 0.893 lb/A) was 98%. For the same molecule, the inhibition at 5043.82 g/ha (Bedstraw Catchweed; 4.5 lb/A) was 100%, the inhibition at 40.0143 g/ha (Velvetleaf [8]; 0.0357 lb/A) was 55% and the inhibition at 200.072 g/ha (Velvetleaf [8]; 0.1785 lb/A) was 75%. For the same molecule, the inhibition at 1000.92 g/ha (Velvetleaf [8]; 0.893 lb/A) was 100% and the inhibition at 5043.82 g/ha (Velvetleaf [8]; 4.5 lb/A) was 100%.

Source: patent publication US5672715A, “Herbicidal substituted 3-aryl-pyrazoles” (Monsanto Company, priority 1995, dated 1997)
